Test results published in ChEMBL document CHEMBL3779821, “On the enthalpic preference of fragment binding” (Medchemcomm, 2016).

Biological target: Macrophage metalloelastase (Homo sapiens, UniProt P39900)
Test: Binding affinity to MMP12 (unknown origin)

Sequence of Macrophage metalloelastase (P39900 whole entry): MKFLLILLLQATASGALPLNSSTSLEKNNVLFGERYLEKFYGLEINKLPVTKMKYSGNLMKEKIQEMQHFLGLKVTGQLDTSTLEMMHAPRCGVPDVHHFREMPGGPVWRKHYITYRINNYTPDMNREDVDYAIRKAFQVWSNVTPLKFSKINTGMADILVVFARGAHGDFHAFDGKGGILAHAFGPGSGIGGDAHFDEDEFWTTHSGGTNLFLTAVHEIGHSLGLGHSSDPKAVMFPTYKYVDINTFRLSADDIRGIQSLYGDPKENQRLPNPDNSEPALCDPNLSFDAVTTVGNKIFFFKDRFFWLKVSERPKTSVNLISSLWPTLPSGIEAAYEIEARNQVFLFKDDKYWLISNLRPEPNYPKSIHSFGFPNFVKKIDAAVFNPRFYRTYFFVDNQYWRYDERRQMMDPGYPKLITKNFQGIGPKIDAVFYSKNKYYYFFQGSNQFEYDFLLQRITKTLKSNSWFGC

Row | Structure (SMILES) | Kd
1 | O=C(CNS(=O)(=O)c1ccccc1)NO | 6.11e-05 mM
2 | CC(=O)NO [ACETOHYDROXAMIC ACID] | 6.18 mM
